# Test results published in ChEMBL document CHEMBL5303761, “Data for DCP probe BI-3231” (2023).
# Columns and labels:
# [1] = target: Prostaglandin G/H synthase 2 (Homo sapiens) (UniProt P35354); assay: COX-2 Eurofins SafetyScreen44 (BI); conditions: Compound concentration 10.0 uM
# [2] = target: Adenosine receptor A2a (Homo sapiens) (UniProt P29274); assay: A2A/H Eurofins SafetyScreen44 (BI); conditions: filed as antagonist, Compound concentration 10.0 uM
# [3] = target: Angiotensin-converting enzyme (Homo sapiens) (UniProt P12821); assay: ACE(HU_AMTCH400) Eurofins SafetyScreen44 (BI); conditions: Compound concentration 10.0 uM
# [4] = target: Androgen receptor (Homo sapiens) (UniProt P10275); assay: ANDROGEN/H Eurofins SafetyScreen44 (BI); conditions: Compound concentration 10.0 uM
# [5] = target: D(1A) dopamine receptor (Homo sapiens) (UniProt P21728); assay: D1/H Eurofins SafetyScreen44 (BI); conditions: filed as antagonist, Compound concentration 10.0 uM
# [6] = target: Sodium-dependent dopamine transporter (Homo sapiens) (UniProt Q01959); assay: DATRANS/HUM Eurofins SafetyScreen44 (BI); conditions: Compound concentration 10.0 uM
# [7] = target: Endothelin-1 receptor (Homo sapiens) (UniProt P25101); assay: ETA/H Eurofins SafetyScreen44 (BI); conditions: Compound concentration 10.0 uM
# [8] = target: Histamine H2 receptor (Homo sapiens) (UniProt P25021); assay: H2/APT/HS Eurofins SafetyScreen44 (BI); conditions: filed as antagonist, Compound concentration 10.0 uM
# [9] = target: T1, Muscarinic acetylcholine receptor M2 (Homo sapiens) (UniProt P08172); assay: M2/H Eurofins SafetyScreen44 (BI); conditions: filed as antagonist, Compound concentration 10.0 uM
# T1 sequence (whole entry): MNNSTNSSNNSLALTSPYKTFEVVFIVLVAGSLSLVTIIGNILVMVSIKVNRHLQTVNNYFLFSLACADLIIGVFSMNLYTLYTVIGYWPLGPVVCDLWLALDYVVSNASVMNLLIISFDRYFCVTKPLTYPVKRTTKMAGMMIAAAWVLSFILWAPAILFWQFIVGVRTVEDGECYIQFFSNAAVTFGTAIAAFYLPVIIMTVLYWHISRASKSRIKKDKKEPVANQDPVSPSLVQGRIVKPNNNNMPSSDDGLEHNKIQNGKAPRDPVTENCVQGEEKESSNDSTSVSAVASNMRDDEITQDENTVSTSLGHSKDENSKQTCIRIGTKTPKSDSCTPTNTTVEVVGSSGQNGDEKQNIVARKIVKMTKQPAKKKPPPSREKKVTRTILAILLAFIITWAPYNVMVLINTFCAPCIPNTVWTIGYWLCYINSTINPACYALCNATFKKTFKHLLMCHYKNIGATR
# [10] = target: Sodium-dependent noradrenaline transporter (Homo sapiens) (UniProt P23975); assay: NEUP/H Eurofins SafetyScreen44 (BI); conditions: Compound concentration 10.0 uM
# [11] = target: Glutamate NMDA receptor (Rattus norvegicus) (UniProt P35439+Q00959+Q00960+Q00961+Q62645+Q8VHN2+Q9R1M7); assay: NMDA/R Eurofins SafetyScreen44 (BI); assay type: protein-complex assay; conditions: Compound concentration 10.0 uM
# [12] = target: 3',5'-cyclic-AMP phosphodiesterase 4D (Homo sapiens) (UniProt Q08499); assay: PDE4D2 Eurofins SafetyScreen44 (BI); conditions: Compound concentration 10.0 uM
# [13] = target: Sodium-dependent serotonin transporter (Homo sapiens) (UniProt P31645); assay: SLC6A4/H Eurofins SafetyScreen44 (BI); conditions: filed as antagonist, Compound concentration 10.0 uM
# [14] = target: 5-hydroxytryptamine receptor 1B (Homo sapiens) (UniProt P28222); conditions: Compound concentration 10.0 uM
# [15] = target: 5-hydroxytryptamine receptor 1D (Homo sapiens) (UniProt P28221); conditions: Compound concentration 10.0 uM
# [16] = target: 5-hydroxytryptamine receptor 7 (Homo sapiens) (UniProt P34969); conditions: Compound concentration 10.0 uM
# [17] = target: D(1B) dopamine receptor (Homo sapiens) (UniProt P21918); conditions: Compound concentration 10.0 uM
# [18] = target: Delta-type opioid receptor (Homo sapiens) (UniProt P41143); conditions: Compound concentration 10.0 uM
# [19] = target: T2, Alpha-1A adrenergic receptor (Homo sapiens) (UniProt P35348); conditions: Compound concentration 10.0 uM
# T2 sequence (whole entry): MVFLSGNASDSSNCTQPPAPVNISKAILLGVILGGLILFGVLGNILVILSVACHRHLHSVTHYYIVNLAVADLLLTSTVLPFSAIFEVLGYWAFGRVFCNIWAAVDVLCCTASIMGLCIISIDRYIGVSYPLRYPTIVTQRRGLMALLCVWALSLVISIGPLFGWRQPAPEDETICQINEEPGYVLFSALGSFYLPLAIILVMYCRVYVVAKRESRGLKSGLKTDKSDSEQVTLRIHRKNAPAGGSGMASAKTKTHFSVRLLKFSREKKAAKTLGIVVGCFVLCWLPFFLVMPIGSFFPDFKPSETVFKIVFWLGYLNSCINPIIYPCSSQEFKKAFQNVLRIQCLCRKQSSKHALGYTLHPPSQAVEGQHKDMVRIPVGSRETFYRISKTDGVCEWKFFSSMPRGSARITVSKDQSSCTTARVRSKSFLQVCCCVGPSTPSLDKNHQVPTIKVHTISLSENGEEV
# [20] = target: T3, Alpha-2A adrenergic receptor (Homo sapiens) (UniProt P08913); conditions: Compound concentration 10.0 uM
# T3 sequence (whole entry): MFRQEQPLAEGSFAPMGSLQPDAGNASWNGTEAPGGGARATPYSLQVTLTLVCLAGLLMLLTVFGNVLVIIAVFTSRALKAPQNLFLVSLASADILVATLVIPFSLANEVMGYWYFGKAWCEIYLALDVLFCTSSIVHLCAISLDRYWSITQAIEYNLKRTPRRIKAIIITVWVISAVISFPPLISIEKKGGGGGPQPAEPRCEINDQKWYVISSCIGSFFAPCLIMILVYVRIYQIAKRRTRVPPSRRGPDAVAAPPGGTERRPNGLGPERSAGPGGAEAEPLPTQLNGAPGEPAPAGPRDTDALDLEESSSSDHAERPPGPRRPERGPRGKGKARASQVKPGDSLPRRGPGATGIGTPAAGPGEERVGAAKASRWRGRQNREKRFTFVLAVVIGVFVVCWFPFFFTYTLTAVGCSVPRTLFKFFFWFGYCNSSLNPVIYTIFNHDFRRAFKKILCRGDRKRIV
# [21] = target: Alpha-2B adrenergic receptor (Homo sapiens) (UniProt P18089); conditions: Compound concentration 10.0 uM
# [22] = target: Beta-3 adrenergic receptor (Homo sapiens) (UniProt P13945); conditions: Compound concentration 10.0 uM
# [23] = target: GABA-A receptor; anion channel (Rattus norvegicus) (UniProt O09028+P15431+P18506+P18508+P19969+P20236+P23574+P23576+P28471+P28473+P30191+P62813+P63079+P63138+Q91ZM7+Q9ES14); conditions: Compound concentration 10.0 uM
# [24] = target: Sigma non-opioid intracellular receptor 1 (Homo sapiens) (UniProt Q99720); conditions: Compound concentration 10.0 uM
# Sigma non-opioid intracellular receptor 1 (Homo sapiens), sequence (Q99720 whole entry): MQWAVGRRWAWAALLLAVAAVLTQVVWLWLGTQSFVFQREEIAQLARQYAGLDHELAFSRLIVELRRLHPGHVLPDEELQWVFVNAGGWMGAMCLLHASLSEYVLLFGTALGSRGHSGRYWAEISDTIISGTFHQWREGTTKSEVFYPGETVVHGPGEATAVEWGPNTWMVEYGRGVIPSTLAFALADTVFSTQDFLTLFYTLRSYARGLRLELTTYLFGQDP
# Alpha-2B adrenergic receptor (Homo sapiens), sequence (P18089 whole entry): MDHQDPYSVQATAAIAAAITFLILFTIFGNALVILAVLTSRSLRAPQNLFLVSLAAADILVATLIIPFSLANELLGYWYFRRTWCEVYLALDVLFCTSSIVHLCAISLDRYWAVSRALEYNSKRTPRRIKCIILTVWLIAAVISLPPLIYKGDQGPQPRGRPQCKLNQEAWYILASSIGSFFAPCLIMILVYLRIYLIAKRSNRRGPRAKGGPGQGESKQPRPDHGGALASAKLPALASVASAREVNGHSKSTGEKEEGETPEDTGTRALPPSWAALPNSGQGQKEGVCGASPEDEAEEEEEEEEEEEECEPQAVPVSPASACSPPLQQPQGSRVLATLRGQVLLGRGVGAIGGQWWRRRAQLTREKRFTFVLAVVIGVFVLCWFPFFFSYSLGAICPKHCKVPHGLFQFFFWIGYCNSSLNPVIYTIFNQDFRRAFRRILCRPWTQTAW
# 5-hydroxytryptamine receptor 1D (Homo sapiens), sequence (P28221 whole entry): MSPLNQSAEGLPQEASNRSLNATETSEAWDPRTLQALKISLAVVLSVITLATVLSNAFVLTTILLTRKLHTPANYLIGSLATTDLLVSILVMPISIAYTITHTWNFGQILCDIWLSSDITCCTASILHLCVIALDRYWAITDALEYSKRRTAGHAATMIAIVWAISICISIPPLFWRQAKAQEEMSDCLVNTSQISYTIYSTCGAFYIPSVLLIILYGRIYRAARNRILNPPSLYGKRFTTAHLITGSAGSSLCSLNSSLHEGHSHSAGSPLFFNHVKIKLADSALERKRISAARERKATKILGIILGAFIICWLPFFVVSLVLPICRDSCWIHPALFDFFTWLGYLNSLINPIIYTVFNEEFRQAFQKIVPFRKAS
# Delta-type opioid receptor (Homo sapiens), sequence (P41143 whole entry): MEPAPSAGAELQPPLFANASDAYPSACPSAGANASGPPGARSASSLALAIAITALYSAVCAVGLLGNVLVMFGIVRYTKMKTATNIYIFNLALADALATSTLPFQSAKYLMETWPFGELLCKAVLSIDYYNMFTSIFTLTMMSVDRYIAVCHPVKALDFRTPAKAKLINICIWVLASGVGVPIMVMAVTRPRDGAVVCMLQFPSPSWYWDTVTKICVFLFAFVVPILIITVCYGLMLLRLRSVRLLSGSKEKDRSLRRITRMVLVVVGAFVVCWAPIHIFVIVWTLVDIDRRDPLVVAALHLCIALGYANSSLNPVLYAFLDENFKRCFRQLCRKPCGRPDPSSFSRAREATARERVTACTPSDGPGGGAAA
# 5-hydroxytryptamine receptor 7 (Homo sapiens), sequence (P34969 whole entry): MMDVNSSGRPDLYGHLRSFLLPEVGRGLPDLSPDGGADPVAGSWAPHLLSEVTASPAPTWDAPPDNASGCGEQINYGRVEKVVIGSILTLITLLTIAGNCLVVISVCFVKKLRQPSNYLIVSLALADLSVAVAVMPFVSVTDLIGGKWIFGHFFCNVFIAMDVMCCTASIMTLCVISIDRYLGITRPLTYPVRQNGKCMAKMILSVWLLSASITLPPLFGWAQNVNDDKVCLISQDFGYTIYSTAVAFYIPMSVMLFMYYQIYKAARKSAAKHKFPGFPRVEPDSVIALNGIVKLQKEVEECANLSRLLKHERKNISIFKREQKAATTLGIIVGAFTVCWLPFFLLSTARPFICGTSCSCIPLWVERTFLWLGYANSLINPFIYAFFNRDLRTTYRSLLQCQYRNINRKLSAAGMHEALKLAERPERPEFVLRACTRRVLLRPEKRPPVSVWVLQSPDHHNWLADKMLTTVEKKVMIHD
# 5-hydroxytryptamine receptor 1B (Homo sapiens), sequence (P28222 whole entry): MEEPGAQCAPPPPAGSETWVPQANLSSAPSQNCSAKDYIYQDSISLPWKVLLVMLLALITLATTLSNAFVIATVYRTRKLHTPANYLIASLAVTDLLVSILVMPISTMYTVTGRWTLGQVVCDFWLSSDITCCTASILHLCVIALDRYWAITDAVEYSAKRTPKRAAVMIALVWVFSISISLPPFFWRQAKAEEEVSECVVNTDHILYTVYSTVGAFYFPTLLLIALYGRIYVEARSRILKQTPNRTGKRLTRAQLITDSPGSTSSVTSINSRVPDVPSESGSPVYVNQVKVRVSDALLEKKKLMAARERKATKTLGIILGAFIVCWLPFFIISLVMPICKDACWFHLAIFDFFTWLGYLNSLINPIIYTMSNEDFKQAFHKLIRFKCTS
# Beta-3 adrenergic receptor (Homo sapiens), sequence (P13945 whole entry, looked up): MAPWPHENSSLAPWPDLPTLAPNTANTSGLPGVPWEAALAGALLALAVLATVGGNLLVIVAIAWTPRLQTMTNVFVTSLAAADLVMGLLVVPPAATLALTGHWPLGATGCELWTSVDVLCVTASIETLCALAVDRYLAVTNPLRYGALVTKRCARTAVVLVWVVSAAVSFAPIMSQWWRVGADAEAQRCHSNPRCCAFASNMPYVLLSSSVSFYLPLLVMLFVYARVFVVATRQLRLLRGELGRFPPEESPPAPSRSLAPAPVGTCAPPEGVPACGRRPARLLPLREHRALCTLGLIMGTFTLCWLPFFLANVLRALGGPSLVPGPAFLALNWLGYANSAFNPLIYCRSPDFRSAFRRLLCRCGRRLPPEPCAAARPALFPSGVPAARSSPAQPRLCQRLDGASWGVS
# D(1B) dopamine receptor (Homo sapiens), sequence (P21918 whole entry): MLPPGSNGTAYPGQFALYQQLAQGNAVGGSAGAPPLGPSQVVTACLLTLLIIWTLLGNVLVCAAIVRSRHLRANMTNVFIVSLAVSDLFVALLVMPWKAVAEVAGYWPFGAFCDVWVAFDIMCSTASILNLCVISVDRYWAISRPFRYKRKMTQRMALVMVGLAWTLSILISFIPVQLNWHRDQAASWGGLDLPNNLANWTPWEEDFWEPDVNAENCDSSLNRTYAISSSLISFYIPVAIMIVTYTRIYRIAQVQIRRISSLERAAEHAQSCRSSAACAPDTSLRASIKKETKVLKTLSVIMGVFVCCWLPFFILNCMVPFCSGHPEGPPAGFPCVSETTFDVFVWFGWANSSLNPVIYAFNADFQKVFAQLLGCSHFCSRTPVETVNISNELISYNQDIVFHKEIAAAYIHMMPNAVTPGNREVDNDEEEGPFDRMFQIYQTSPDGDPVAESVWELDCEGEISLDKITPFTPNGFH
# Androgen receptor (Homo sapiens), sequence (P10275 whole entry): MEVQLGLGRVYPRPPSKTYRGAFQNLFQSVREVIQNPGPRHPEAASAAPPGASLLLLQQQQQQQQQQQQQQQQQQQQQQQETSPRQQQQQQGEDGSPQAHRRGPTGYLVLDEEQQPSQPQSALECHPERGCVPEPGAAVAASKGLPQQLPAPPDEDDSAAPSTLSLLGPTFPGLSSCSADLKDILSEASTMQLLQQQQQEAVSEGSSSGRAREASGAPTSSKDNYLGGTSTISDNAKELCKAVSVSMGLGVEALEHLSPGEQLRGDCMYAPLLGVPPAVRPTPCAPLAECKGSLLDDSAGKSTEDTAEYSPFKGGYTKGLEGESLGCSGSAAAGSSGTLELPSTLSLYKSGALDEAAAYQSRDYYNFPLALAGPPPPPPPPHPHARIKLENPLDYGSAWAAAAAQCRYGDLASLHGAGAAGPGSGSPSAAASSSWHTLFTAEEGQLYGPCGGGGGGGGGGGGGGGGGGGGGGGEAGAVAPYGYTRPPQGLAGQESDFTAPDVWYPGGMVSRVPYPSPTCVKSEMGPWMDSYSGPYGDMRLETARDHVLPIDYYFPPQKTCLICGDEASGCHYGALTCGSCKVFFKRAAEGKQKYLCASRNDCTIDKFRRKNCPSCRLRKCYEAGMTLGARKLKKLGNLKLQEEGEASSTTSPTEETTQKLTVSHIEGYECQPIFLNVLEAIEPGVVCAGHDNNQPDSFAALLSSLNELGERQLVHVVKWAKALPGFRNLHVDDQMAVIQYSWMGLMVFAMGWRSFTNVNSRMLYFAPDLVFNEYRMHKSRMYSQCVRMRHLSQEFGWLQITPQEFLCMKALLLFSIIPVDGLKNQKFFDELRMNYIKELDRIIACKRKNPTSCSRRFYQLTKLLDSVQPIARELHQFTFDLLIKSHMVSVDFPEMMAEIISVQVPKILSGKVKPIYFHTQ
# Endothelin-1 receptor (Homo sapiens), sequence (P25101 whole entry): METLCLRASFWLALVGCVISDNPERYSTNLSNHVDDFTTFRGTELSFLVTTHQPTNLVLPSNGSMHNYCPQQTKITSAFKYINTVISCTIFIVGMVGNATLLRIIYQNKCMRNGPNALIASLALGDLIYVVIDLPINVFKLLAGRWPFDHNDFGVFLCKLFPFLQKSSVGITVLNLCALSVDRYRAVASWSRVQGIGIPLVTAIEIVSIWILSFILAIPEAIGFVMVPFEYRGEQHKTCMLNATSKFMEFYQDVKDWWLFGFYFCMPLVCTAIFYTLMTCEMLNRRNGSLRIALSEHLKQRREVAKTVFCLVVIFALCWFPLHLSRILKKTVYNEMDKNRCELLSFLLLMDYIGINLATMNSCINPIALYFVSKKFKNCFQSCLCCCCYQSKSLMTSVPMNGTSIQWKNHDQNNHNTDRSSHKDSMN
# Histamine H2 receptor (Homo sapiens), sequence (P25021 whole entry): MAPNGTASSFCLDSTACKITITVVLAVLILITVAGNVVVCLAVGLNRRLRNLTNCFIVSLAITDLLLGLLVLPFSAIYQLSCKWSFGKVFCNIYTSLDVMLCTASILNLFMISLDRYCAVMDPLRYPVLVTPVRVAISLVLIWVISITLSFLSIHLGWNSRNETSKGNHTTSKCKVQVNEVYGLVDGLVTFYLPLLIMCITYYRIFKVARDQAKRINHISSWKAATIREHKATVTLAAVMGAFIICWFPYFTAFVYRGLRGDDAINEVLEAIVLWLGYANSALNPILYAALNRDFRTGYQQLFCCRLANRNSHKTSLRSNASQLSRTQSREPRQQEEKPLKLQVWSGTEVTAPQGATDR
inhibition [14] [%],inhibition [15] [%],inhibition [16] [%],inhibition [17] [%],inhibition [18] [%],inhibition [19] [%],inhibition [20] [%],Compound,residual activity [1] [%],residual activity [2] [%],residual activity [3] [%],residual activity [4] [%],residual activity [5] [%],residual activity [6] [%],residual activity [7] [%],residual activity [8] [%],residual activity [9] [%],residual activity [10] [%],residual activity [11] [%],residual activity [12] [%],residual activity [13] [%],also measured
8.52,15.8,-1.29,-6.46,-0.06,-8.57,16.4,CCn1c(=O)c(C)cn(Cc2nnc(-c3ccc(F)c(OC)c3F)s2)c1=O,44,81,117,103,97,86,104,107,113,92,103,64,97,inhibition [21]: 2.49%; inhibition [22]: 6.74%; inhibition [23]: 19.9%; inhibition [24]: 16.4%
16,6.08,5.8,8.17,9.87,-6.48,4.94,CCn1c(=O)c(C)cn(Cc2nnc(-c3ccc(F)c(O)c3F)s2)c1=O,49,103,99,102,105,82,97,105,106,88,104,68,106,inhibition [21]: 5.03%; inhibition [22]: -4.71%; inhibition [23]: 27.6%; inhibition [24]: 17.2%
